According to ChEMBL document CHEMBL1154665, “Novel compounds designed as antistress agents” (J Med Chem, 2009):

Experiments:
[1] = tested on: Brain; assay: Antioxidant activity in rat brain homogenate assessed as malondialdehyde release; format: functional, tissue-based
[2] = tested on: Rattus norvegicus; assay: Antistress activity against food and water deprivation-induced stress in rat assessed as reduction in malondialdehyde formation at 0.055 mmol/kg, ip after 3 hrs; format: functional
[3] = organism: Rattus norvegicus; assay: Antistress activity in rat assessed as decrease in stress-induced hepatic cytochrome P450 level by spectroscopically; format: functional; design: scale not given: the % may be the effect or the level left
[4] = tested on: Rattus norvegicus; assay: Antistress activity against food and water deprivation-induced stress in rat assessed as increase in adrenal weight measured per 100 gm of body weight at 0.055 mmol/kg, ip after 3 hrs; format: functional
[5] = tested on: Rattus norvegicus; assay: Antistress activity against food and water deprivation-induced stress in rat assessed as increase in liver weight measured per 100 gm of body weight at 0.055 mmol/kg, ip after 3 hrs; format: functional
[6] = tested on: Rattus norvegicus; assay: Antihyperlipidemic activity in triton WR 1339 treated rat assessed as LDL-cholesterol at 56 umol/kg, ip measured after 24 hrs; format: functional
[7] = tested on: Rattus norvegicus; assay: Antistress activity against food and water deprivation-induced stress in rat assessed as increase in thymus weight measured per 100 gm of body weight at 0.055 mmol/kg, ip after 3 hrs; format: functional
[8] = tested on: Rattus norvegicus; assay: Antihyperlipidemic activity in triton WR 1339 treated rat assessed as plasma total cholesterol at 56 umol/kg, ip measured after 24 hrs; format: functional
[9] = tested on: Rattus norvegicus; assay: Antistress activity against food and water deprivation-induced stress in rat assessed as change in body weight at 0.055 mmol/kg, ip after 3 hrs; format: functional
[10] = tested on: Rattus norvegicus; assay: Antihyperlipidemic activity in triton WR 1339 treated rat assessed as triglyceride at 56 umol/kg, ip measured after 24 hrs; format: functional
[11] = organism: Rattus norvegicus; assay: Antistress activity in rat assessed as decrease in stress-induced oxidative N-demethylation of erythromycin; format: functional; design: scale not given: the % may be the effect or the level left
[12] = tested on: Rattus norvegicus; assay: Antistress activity against food and water deprivation-induced stress in rat assessed as decrease in uropepsinogen level in urine at 0.055 mmol/kg, ip after 3 hrs; format: functional

| SMILES | IC50 [1] [µM] | Activity [2] [nmol/mg] | Activity [3] [%] | Activity [4] [mg] | Activity [5] [mg] | Activity [6] [%] | Activity [7] [mg] | Activity [8] [%] | Activity [9] [%] | Activity [10] [%] | Activity [11] [%] | Activity [12] [kiloU/hr] |
| --- | --- | --- | --- | --- | --- | --- | --- | --- | --- | --- | --- | --- |
| CC(C)(C)c1cc(C(=O)O)cc(C(C)(C)C)c1O | 257 |  |  |  |  |  |  |  |  |  |  |  |
| Cc1c(C)c2c(c(C)c1O)CC[C@](C)(C(=O)O)O2 [(R)-TROLOX] | 25 |  |  |  |  |  |  |  |  |  |  |  |
| Cc1c(C)c2c(c(C)c1O)CC[C@](C)(C(=O)NCCCC(=O)OC1N=C(c3ccccc3Cl)c3cc(Cl)ccc3NC1=O)O2 (some centres undefined) | 1.1 | 37.5 | 35 | 34 | 4.2 | 40 | 117 | 40 | -10 | 40 | 40 | 34 |
| CC(C)(C)c1cc(C(=O)NCCCC(=O)OC2N=C(c3ccccc3Cl)c3cc(Cl)ccc3NC2=O)cc(C(C)(C)C)c1O (centres undefined) | 24 | 41.2 |  | 40 | 4.5 | 40 | 151 | 40 | -3.8 | 40 |  | 30 |
